Data set [1] has as its target T1, 5-HT2A (Homo sapiens, UniProt P28223). The experiment in a line: Calcium flux agonist assay, 293T cells. More on the design: expressed in transfected cells; host or cells: Human Embryonic Kidney (293T) cells, transient. The note with it: for Emax: HEK-293T, calcium flux, 5-HT2A, normalized to maximum 5-HT response. The class given is cell-based. On the technique in general: Calcium flux is commonly read through the fluorescence of an indicator in the cells.

The target in data set [2] is T1, 5-HT2A. The experiment in a line: IP-One HTRF IP-1 accumulation functional assay, 5-HT2A-expressing HEK293. The class given is cell-based. More on the design: host or cells: HEK293. How it is done:
Methods (5-HT2A and 5-HT2C IP-One Functional Activity Assays): Intracellular accumulation of IP-1 was measured using an IP-One HTRF assay kit (Cat. #62IPAPEJ, Cisbio) at WuXi AppTec Co. Ltd. (Hong Kong) Discovery Biology Unit according to their standard protocols. Briefly, the reference compounds and screening compounds were 3.16-fold serially diluted in 100% DMSO for 10 points using Bravo. 70 nL of compounds were added to the assay plate using Echo555. Added 14 μL/7500 cells/well of 5-HT2A-expressing HEK293 or 5-HT2C-expressing HEK293 to the assay plate and incubate for 60 min at 37° C. Added 3 μL of IP-1 d2 Reagent working solution and 3 μL of IP-1 Tb Cryptate Antibody working solution to all wells. The plates were incubated for 1 hour at room temperature and read for fluorescence at 620 nm and 665 nm on an EnVision Multimode Plate Reader (PerkinElmer). The ratio of the acceptor and donor emission signals (665/620) were calculated for each individual well and substituted into the standard curve to obtain the log concentration of IP level. After converting to the antilog base IP-1, the average background control signal was subtracted from each well and values were normalized to the maximal response of 5-HT at 3 μM (100%). % MAX was calculated by taking the average normalized maximal response for each compound at the highest concentration tested. The data were analyzed using the four-parameter nonlinear regression curve-fitting function in GraphPad Prism 5 (GraphPad Software, San Diego, CA) to generate potency (EC50) values. The represented plots show normalized IP-1 values versus compound concentrations; the corresponding numerical data are parameter estimates for the concentration-response curve using the four-parameter nonlinear regression curve-fitting function in GraphPad Prism 10.
(In TR-FRET formats the signal depends on donor and acceptor labels being close together.)

Data set [3] concerns the target T2, 5-HT2B (Homo sapiens, UniProt P41595). The experiment in a line: IP-One HTRF IP-1 accumulation functional assay, 5-HT2B/HEK293. The class given is cell-based. The arrangement: host or cells: HEK293. How it is done:
Methods (5-HT2B IP-One Functional Activity Assays): Intracellular accumulation of IP-1 was measured using an IP-One HTRF) assay kit (Cat. #62IPAPEJ, Cisbio) at WuXi AppTec Co. Ltd. (Hong Kong) Discovery Biology Unit according to their standard protocols. Briefly, 5-HT2B/HEK293 were plated in a 384-well plate and incubated at 37° C. and 5% CO2 overnight. The reference compounds and screening compounds were 3.16-fold serially diluted in 100% DMSO for 10 points using Bravo. 70 nL of compounds were added to the cell plate using Echo555. Incubated for 60 minutes at 37° C. Added 3 μL of IP-1 d2 Reagent working solution and 3 μL of IP-1 Tb Cryptate Antibody working solution to all wells. The plates were incubated for 1 hour at room temperature and read on for fluorescence at 620 nm and 665 nm on an EnVision Multimode Plate Reader (PerkinElmer). The ratio of the acceptor and donor emission signals (665/620) were calculated for each individual well and substituted into the standard curve to obtain the log concentration of IP level. After converting to the antilog base IP-1, the average background control signal was subtracted from each well and values were normalized to the maximal response of 5-HT at 3 μM (100%). % MAX was calculated by taking the average normalized maximal response at the highest concentration tested. Data were analyzed using the four-parameter nonlinear regression curve-fitting function in GraphPad Prism 5 (GraphPad Software, San Diego, CA) to generate potency (EC50) values. Parameter constraint “Top=100” was used in the analysis of 5-HT2B IP-1. Represented plots show normalized IP-1 values versus compound concentrations; the corresponding numerical data are parameter estimates for the concentration-response curve using the 4-parameter nonlinear regression curve-fitting function in GraphPad Prism 10. “Top=100” parameter constraint was not enabled for the represented plot analysis.

For data set [4], the target named is T2, 5-HT2B. The experiment in a line: Calcium flux agonist assay, 293T cells. The class given is cell-based. More on the design: expressed in transfected cells; host or cells: Human Embryonic Kidney (293T) cells, transient. As to conditions: for Emax: HEK-293T, 5-HT2B, normalized to maximum 5-HT response; for Emax / 5-HT2B receptor activation: calcium flux; for 5-HT2B receptor activation: in words.

The test system of data set [5] is male C57BL/6J mice. The experiment in a line: Motor activity / distance traveled measured in parallel with HTR. The class given is in vivo, mouse. As to conditions: i.p.; for motor activity, in words: magnetometer activity.
In data set [6] the test system is male C57BL/6J mice. The experiment in a line: Mouse head-twitch response (HTR) assay, magnetometer. The note with it: for HTR (head twitch response), in words: i.p., doses up to 30 mpk. The class given is in vivo.
Data set [7] is described as follows: Aqueous solubility by sequential dilution in water, microscopic inspection. The note with it: water, thermodynamic from solid.
Data set [8] in a line: Photoabsorption 290-700 nm, molar extinction coefficient (photoliability). The class given is physicochemical. The note with it: wavelength of maximal absorption between 290 nm and 700 nm.
The target of the next data set is T3, 5-HT2C (h) (Homo sapiens, UniProt P28335).
T3 construct: host or cells: HEK-293 cells
T3 sequence (P28335 33-458): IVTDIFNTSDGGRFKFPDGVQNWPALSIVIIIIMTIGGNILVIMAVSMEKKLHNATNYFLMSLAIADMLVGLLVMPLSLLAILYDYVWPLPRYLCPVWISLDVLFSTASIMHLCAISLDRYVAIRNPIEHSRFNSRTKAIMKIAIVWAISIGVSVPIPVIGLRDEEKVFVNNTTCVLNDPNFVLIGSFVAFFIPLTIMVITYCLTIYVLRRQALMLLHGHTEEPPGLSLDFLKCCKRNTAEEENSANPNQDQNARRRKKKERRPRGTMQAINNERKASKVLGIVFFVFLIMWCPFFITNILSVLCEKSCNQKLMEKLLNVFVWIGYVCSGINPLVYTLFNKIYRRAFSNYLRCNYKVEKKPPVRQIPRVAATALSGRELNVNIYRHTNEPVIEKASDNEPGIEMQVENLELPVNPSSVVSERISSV
The experiment in a line: Radioligand binding 5-HT2C (h) (agonist radioligand), [^125I](±)DOI, HEK-293 cells.

For the next data set, the target named is T4, 5-HT2B (h) (Homo sapiens, UniProt P41595).
T4 construct: host or cells: CHO cells
As to the kind of experiment: Radioligand binding 5-HT2B (h) (agonist radioligand), [^125I](±)DOI, CHO cells.

For another data set, the target named is T5, 5-HT2A (h) (Homo sapiens, UniProt P28223).
T5 construct: host or cells: HEK-293 cells
The experiment in a line: Radioligand binding 5-HT2A (h) (agonist radioligand), [^125I](±)DOI, HEK-293 cells. As to conditions: 5-HT2A, Hill coefficient.

Converted amounts (≈) assume the structure as drawn. “Also recorded” adds a separate entry of the source.

T2 sequence (P41595 whole entry): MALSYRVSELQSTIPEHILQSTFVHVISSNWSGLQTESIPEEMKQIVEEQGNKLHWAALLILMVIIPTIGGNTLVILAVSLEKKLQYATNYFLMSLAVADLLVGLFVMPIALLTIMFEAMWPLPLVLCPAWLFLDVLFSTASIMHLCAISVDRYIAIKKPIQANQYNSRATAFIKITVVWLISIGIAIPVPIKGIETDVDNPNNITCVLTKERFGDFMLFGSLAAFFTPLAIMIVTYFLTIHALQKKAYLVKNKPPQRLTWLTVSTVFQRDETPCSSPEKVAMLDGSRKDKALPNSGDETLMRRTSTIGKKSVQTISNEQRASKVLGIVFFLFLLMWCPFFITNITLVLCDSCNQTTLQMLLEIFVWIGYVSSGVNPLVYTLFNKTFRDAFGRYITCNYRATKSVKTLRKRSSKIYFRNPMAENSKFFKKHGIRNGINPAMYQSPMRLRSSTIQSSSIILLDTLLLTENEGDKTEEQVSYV
T4 sequence (P41595 whole entry): as above
T1 sequence (P28223 whole entry, looked up): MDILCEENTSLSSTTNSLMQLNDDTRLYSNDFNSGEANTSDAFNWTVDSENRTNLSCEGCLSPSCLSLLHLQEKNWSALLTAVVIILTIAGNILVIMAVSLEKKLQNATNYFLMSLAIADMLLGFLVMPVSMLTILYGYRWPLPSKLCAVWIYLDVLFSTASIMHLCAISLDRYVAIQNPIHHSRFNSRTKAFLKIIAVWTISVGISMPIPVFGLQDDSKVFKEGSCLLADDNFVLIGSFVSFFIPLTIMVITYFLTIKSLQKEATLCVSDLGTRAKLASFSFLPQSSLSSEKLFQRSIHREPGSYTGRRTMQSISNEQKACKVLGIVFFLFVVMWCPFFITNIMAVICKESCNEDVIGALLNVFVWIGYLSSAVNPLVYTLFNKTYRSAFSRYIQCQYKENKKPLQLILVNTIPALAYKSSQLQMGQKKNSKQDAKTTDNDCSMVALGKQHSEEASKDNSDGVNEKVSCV
T5 sequence (P28223 whole entry, looked up): as above

In general, EC50 refers to the concentration giving half of the maximal effect. What is called Emax is the greatest response seen or fitted, relative to the assay's reference. For the compound `COc1cc(CCN)c(OC)cc1Br` [Compound 2C-B, reference compound], the EC50 worked out at 0.62 nM at 5-HT2A [1], 20.9 nM at 5-HT2A [2], 232 nM on 5-HT2B [3] and 9.98 nM on 5-HT2B [4]. In addition, the Emax turned out to be 105% on 5-HT2A [1] and 92.7% at 5-HT2B [4]. Further, the 5-HT2B receptor activation entry at 5-HT2B [4] is given as “near maximal activation”.
Broadly, the ED50 is the midpoint of the dose-response relation. Higher therefore signals weaker potency. One may read the solubility as the concentration that dissolves in the medium under given conditions. Low values mean a poorly soluble substance, high ones a readily soluble substance. For the compound `COc1cc(CC(C)C)c(OC)cc1CCN` [Compound 2C-iBu, reference compound], in the data set on male C57BL/6J mice [5], the “motor activity ID50” value stood at 2 mpk; the “motor activity, in words” value was “modest but statistically significant effect on motor suppression at the doses of 3 and 10 mpk”. Besides, at 5-HT2A [1], the EC50 is 21.9 nM and the Emax stood at 92.6%. This compound also gave a median effective dose (ED50) in the data set with male C57BL/6J mice [6] (Mus musculus, ip, non-linear regression) of 0.42 mg/kg. Further, the “HTR (head twitch response), in words” value in the data set on male C57BL/6J mice [6] is “produced clear HTR time-course and inverted U-shape dose-response patterns; also recorded: induced HTR activity”. For the same compound, at 5-HT2B [4], the EC50 is 22.3 nM, the Emax was determined as 89.1% and the 5-HT2B receptor activation entry was “near maximal activation”. This compound also gave a solubility in [7] of 31.2 mM (≈ 7400 µg/mL).
`COc1cc(CC(C)C)c(CO)cc1CCN` [Compound 2CiBu-5HM, [5-(2-Aminoethyl)-2-isobutyl-4-methoxy-phenyl]methanol] gave an MEC in [8] of 340.7 L/mol/cm. In addition, the half-maximal effective concentration (EC50) stood at 466 nM at 5-HT2A [2] and 1120 nM on 5-HT2B [3]. The solubility in data set [7] was 44.4 mM (≈ 10500 µg/mL).
In general, Ki refers to the dissociation constant of the complex between target and ligand, obtained from inhibition or displacement. By IC50 is commonly meant the midpoint of a concentration-inhibition curve. Low values mean inhibition by little substance, high ones a need for much substance. In the case of `COc1cc(C[C@@H](C)N)c(OC)cc1I` [R-DOI, (−)-R-2,5-dimethoxy-4-iodo-amphetamine, reference compound], the “motor activity, in words” value in the data set with male C57BL/6J mice [5] is given as “increase in motor activity”. The inhibition constant (Ki) at 5-HT2C (h) is 0.4 nM; at 5-HT2B (h), 1.2 nM. The nH on 5-HT2C (h) (5-HT2C, Hill coefficient) worked out at 1.0; on 5-HT2B (h) (5-HT2B, Hill coefficient) it was 0.7; at 5-HT2A (h), 0.7. Moreover, in the data set on male C57BL/6J mice [6], the “HTR (head twitch response), in words” value is reported as “induced HTR that gradually increased over time”. The same compound had a concentration for half-maximal inhibition (IC50) at 5-HT2B (h) of 2.3 nM.

The values above are taken from patent US12692221B2 (priority 2024, dated 2026).
